Reference: patent US5232932A, “Method for treatment of neurodegenerative diseases” (R. J. Reynolds Tobacco Company, priority 1992, dated 1993)

Columns and labels:
[1] = test system: synaptosomes from the striatal area of rat brain; assay: [3H]-dopamine release from rat striatal synaptosomes; assay type: biochemical, Sprague-Dawley rats; details: 0.2 ml of 10 μM solution of ligand; relative to equal concentration of (S)-(-)-nicotine
Protocol: Dopamine release was measured by preparing synaptosomes from the striatal area of rat brain obtained from Sprague-Dawley rats generally according to the procedures set forth by Nagy, et al., J. Neurochem., Vol. 43, pp. 1114-1123 (1984). Striata from 4 rats were homogenized in 2 ml of 0.32M sucrose buffered with 5 mM HEPES (pH 7.5), using a glass-teflon tissue grinder. The homogenate was diluted to 5 ml with additional homogenization solution and centrifuged at 1000×g for 10 min. This procedure was repeated on the new pellet and the resulting supernatant was centrifuged at 12,000×g for 20 min. […] Using this method, 30 to 90 percent of the dopamine was taken up into the synaptosomes, as determined by scintillation counting following filtration through glass fiber filters soaked with 0.5 percent polyethyleneimine. […] After the addition of a 0.2 ml of a 10 μM solution of ligand, the perfusate was collected into scintillation vials at 1 min. intervals and the dopamine released was quantified by scintillation counting. Peaks of radioactivity released above background were summed and the average basal release during that time was subtracted from the total. Release was expressed as a percentage of release obtained with an equal concentration of (S)-(-)-nicotine.

[2] = biological target: high affinity nicotinic receptors; assay: Inhibition of L-[3H]nicotine binding to mouse brain membrane preparations; design: species or system Mice (DBA strain); details: mouse brain membranes, 2 hr at 4° C., Ki calculated from IC50 by method of Cheng et al.
Protocol: Mice (DBA strain) were maintained on a 12 hour light/dark cycle and were allowed free access to water and food supplied by Wayne Lab Blox, Madison, WI. Animals used in the present studies were 60 to 90 days of age and weighed 20 to 25 g. Brain membrane preparations were obtained from pooled brain tissue of both males and females.
Mice were killed by cervical dislocation. Brains were removed and placed on an ice-cold platform. The cerebellum was removed and the remaining tissue was placed in 10 volumes (weight:volume) of ice-cold buffer (Krebs-RingersHEPES:NaCl, 118 mM; KCl, 4.8 mM; CaCl2, 2.5 mM; MgSO4, 1.2 mM; HEPES, 20 mM; pH to 7.5 with NaOH) and homogenized with a glass-Teflon tissue grinder. The resulting homogenate was centrifuged at 18000×g for 20 min. and the resulting pellet was resuspended in 20 volumes of water. […] Protein was determined by the method of Lowry, et al., J. Biol. Chem., Vol. 193, pp. 265-275 (1951), using bovine serum albumin as the standard.
The binding of L-[^3 H]nicotine was measured using a modification of the method of Romano, et al., Science, Vol. 210, pp. 647-650 (1980) as described previously by Marks, et al., Mol. Pharmacol., Vol. 30, pp. 427-436 (1986). The binding of L-[^3 H]nicotine was measured using a 2 hr. incubation at 4° C. […] Nonspecific binding was determined by inclusion of 10 μM nonradioactive nicotine in the incubations. […]

For CNCCCC(=O)c1cccnc1 [pseudooxynicotine], the “Dopamine Release, percent release relative to (S)-(-)-nicotine” value [1] was 45% and the Ki [2] was 1.7 µM.
